Source: ChEMBL document CHEMBL3875147 (Eur J Med Chem, 2016)
Values after ≈ are worked out from the molar mass of the structure shown.

What was measured:
[1] = system: Staphylococcus aureus; assay: Antibacterial activity against Staphylococcus aureus ATCC 25923 incubated for 18 to 24 hrs by micro-dilution method; format: functional
[2] = system: Staphylococcus epidermidis; assay: Antibacterial activity against Staphylococcus epidermidis ATCC 35984 incubated for 18 to 24 hrs by micro-dilution method; format: functional; details: RP62A
[3] = system: Enterococcus faecalis; assay: Antibacterial activity against clinical isolate of Enterococcus faecalis incubated for 18 to 24 hrs by micro-dilution method; format: functional
[4] = system: Escherichia coli; assay: Antibacterial activity against Escherichia coli ATCC 25922 incubated for 18 to 24 hrs by micro-dilution method; format: functional
[5] = system: Pseudomonas aeruginosa; assay: Antibacterial activity against Pseudomonas aeruginosa ATCC 27853 incubated for 18 to 24 hrs by micro-dilution method; format: functional
[6] = system: Pseudomonas aeruginosa; assay: Antibacterial activity against clinical isolate of Pseudomonas aeruginosa incubated for 18 to 24 hrs by micro-dilution method; format: functional
[7] = Antibacterial activity against Aeromonas hydrophila ATCC 7966 incubated for 18 to 24 hrs by micro-dilution method; format: functional, Aeromonas hydrophila subsp. hydrophila ATCC 7966
[8] = system: Salmonella typhi; assay: Antibacterial activity against clinical isolate of Salmonella typhi incubated for 18 to 24 hrs by micro-dilution method; format: functional, Salmonella enterica subsp. enterica serovar Typhi; details: Salmonella enterica
[9] = system: Salmonella typhimurium; assay: Antibacterial activity against clinical isolate of Salmonella typhimurium incubated for 18 to 24 hrs by micro-dilution method; format: functional, Salmonella enterica subsp. enterica serovar Typhimurium; details: Salmonella enterica
[10] = system: Sphingomonas paucimobilis; assay: Antibacterial activity against Sphingomonas paucimobilis MTCC 6362 incubated for 18 to 24 hrs by micro-dilution method; format: functional
[11] = system: Plesiomonas shigelloides; assay: Antibacterial activity against Plesiomonas shigelloides ATCC 14029 incubated for 18 to 24 hrs by micro-dilution method; format: functional
[12] = Hemolytic activity in human RBC at 100 uM measured after 1 hr by UV-vis absorbance method relative to control; format: ADME, cell-based, Erythrocyte; details: red blood cells (RBC), read-out: Activity

Row | SMILES | MIC [1] | MIC [2] | MIC [3] | MIC [4] | MIC [5] | MIC [6] | MIC [7] | MIC [8] | MIC [9] | MIC [10] | MIC [11] | hemolysis at 1 h, 100 µM [12]
1 | O=C(OCc1cn(-c2ccc(F)cc2F)nn1)c1cn(C2CC2)c2cc(N3CCN(Cc4cn(-c5ccc(F)cc5F)nn4)CC3)c(F)cc2c1=O | 4.35 µM (≈ 3.12 µg/mL) | 8.71 µM (≈ 6.25 µg/mL) | 17.4 µM (≈ 12.5 µg/mL) | 8.71 µM (≈ 6.25 µg/mL) | 8.71 µM (≈ 6.25 µg/mL) | 17.4 µM (≈ 12.5 µg/mL) | 69.7 µM (≈ 50 µg/mL) | 4.35 µM (≈ 3.12 µg/mL) | 34.8 µM (≈ 25 µg/mL) | 34.8 µM (≈ 25 µg/mL) | 69.7 µM (≈ 50 µg/mL) | 9.5%
2 | Cc1ccc(-n2cc(COC(=O)c3cn(C4CC4)c4cc(N5CCN(Cc6cn(-c7ccc(C)cc7Cl)nn6)CC5)c(F)cc4c3=O)nn2)c(Cl)c1 | 4.21 µM (≈ 3.13 µg/mL) | 8.42 µM (≈ 6.25 µg/mL) | 33.7 µM (≈ 25 µg/mL) | 67.3 µM (≈ 50 µg/mL) | 16.8 µM (≈ 12.5 µg/mL) | 16.8 µM (≈ 12.5 µg/mL) | 67.3 µM (≈ 50 µg/mL) | > 135 µM | 67.3 µM (≈ 50 µg/mL) | 67.3 µM (≈ 50 µg/mL) | 33.7 µM (≈ 25 µg/mL) | 5.85%
3 | CCc1ccc(-n2cc(COC(=O)c3cn(C4CC4)c4cc(N5CCN(Cc6cn(-c7ccc(CC)cc7)nn6)CC5)c(F)cc4c3=O)nn2)cc1 | 142 µM (≈ 100 µg/mL) | 71.2 µM (≈ 50 µg/mL) | 142 µM (≈ 100 µg/mL) | > 142 µM | > 142 µM | > 142 µM | > 142 µM | 142 µM (≈ 100 µg/mL) | 8.91 µM (≈ 6.25 µg/mL) | > 142 µM | 4.45 µM (≈ 3.12 µg/mL) | 6.81%
4 | O=C(OCc1cn(-c2cccc(Cl)c2Cl)nn1)c1cn(C2CC2)c2cc(N3CCN(Cc4cn(-c5cccc(Cl)c5Cl)nn4)CC3)c(F)cc2c1=O | 3.99 µM (≈ 3.13 µg/mL) | 3.99 µM (≈ 3.13 µg/mL) | 15.9 µM (≈ 12.5 µg/mL) | 7.98 µM (≈ 6.25 µg/mL) | 7.98 µM (≈ 6.25 µg/mL) | 15.9 µM (≈ 12.5 µg/mL) | 31.9 µM (≈ 25 µg/mL) | 31.9 µM (≈ 25 µg/mL) | 15.9 µM (≈ 12.5 µg/mL) | 15.9 µM (≈ 12.5 µg/mL) | 7.98 µM (≈ 6.25 µg/mL) | 6.58%
5 | O=C(OCc1cn(-c2ccc(Br)cc2)nn1)c1cn(C2CC2)c2cc(N3CCN(Cc4cn(-c5ccc(Br)cc5)nn4)CC3)c(F)cc2c1=O | 1.94 µM (≈ 1.56 µg/mL) | 3.89 µM (≈ 3.13 µg/mL) | 15.6 µM (≈ 12.5 µg/mL) | 7.78 µM (≈ 6.25 µg/mL) | 15.6 µM (≈ 12.5 µg/mL) | 15.6 µM (≈ 12.5 µg/mL) | 31.1 µM (≈ 25 µg/mL) | 7.78 µM (≈ 6.25 µg/mL) | 15.6 µM (≈ 12.5 µg/mL) | 15.6 µM (≈ 12.5 µg/mL) | 3.89 µM (≈ 3.13 µg/mL) | 1.46%
6 | O=C(OCc1cn(-c2ccc(Cl)cc2)nn1)c1cn(C2CC2)c2cc(N3CCN(Cc4cn(-c5ccc(Cl)cc5)nn4)CC3)c(F)cc2c1=O | 2.19 µM (≈ 1.56 µg/mL) | 35 µM (≈ 25 µg/mL) | 2.19 µM (≈ 1.56 µg/mL) | 4.37 µM (≈ 3.12 µg/mL) | 4.37 µM (≈ 3.12 µg/mL) | 8.75 µM (≈ 6.25 µg/mL) | 35 µM (≈ 25 µg/mL) | – | 4.37 µM (≈ 3.12 µg/mL) | 35 µM (≈ 25 µg/mL) | 8.75 µM (≈ 6.25 µg/mL) | 4.73%
7 | O=C(OCc1cn(-c2ccc(Cl)cc2Cl)nn1)c1cn(C2CC2)c2cc(N3CCN(Cc4cn(-c5ccc(Cl)cc5Cl)nn4)CC3)c(F)cc2c1=O | 3.99 µM (≈ 3.13 µg/mL) | 3.99 µM (≈ 3.13 µg/mL) | 15.9 µM (≈ 12.5 µg/mL) | > 128 µM | 15.9 µM (≈ 12.5 µg/mL) | 7.98 µM (≈ 6.25 µg/mL) | 7.98 µM (≈ 6.25 µg/mL) | 7.98 µM (≈ 6.25 µg/mL) | 15.9 µM (≈ 12.5 µg/mL) | 15.9 µM (≈ 12.5 µg/mL) | 7.98 µM (≈ 6.25 µg/mL) | 18.2%
8 | Cc1cc(C)cc(-n2cc(COC(=O)c3cn(C4CC4)c4cc(N5CCN(Cc6cn(-c7cc(C)cc(C)c7)nn6)CC5)c(F)cc4c3=O)nn2)c1 | 71.2 µM (≈ 50 µg/mL) | 142 µM (≈ 100 µg/mL) | > 142 µM | 142 µM (≈ 100 µg/mL) | > 142 µM | > 142 µM | > 142 µM | > 142 µM | > 142 µM | > 142 µM | 8.91 µM (≈ 6.25 µg/mL) | 8.79%
9 | CC(=O)c1ccc(-n2cc(COC(=O)c3cn(C4CC4)c4cc(N5CCN(Cc6cn(-c7ccc(C(C)=O)cc7)nn6)CC5)c(F)cc4c3=O)nn2)cc1 | 2.14 µM (≈ 1.56 µg/mL) | 2.14 µM (≈ 1.56 µg/mL) | 4.28 µM (≈ 3.12 µg/mL) | 2.14 µM (≈ 1.56 µg/mL) | 4.28 µM (≈ 3.12 µg/mL) | 8.56 µM (≈ 6.25 µg/mL) | 8.56 µM (≈ 6.25 µg/mL) | – | 8.56 µM (≈ 6.25 µg/mL) | 17.1 µM (≈ 12.5 µg/mL) | 2.14 µM (≈ 1.56 µg/mL) | 8.05%
10 | O=C(OCc1cn(-c2ccc(F)c(Cl)c2)nn1)c1cn(C2CC2)c2cc(N3CCN(Cc4cn(-c5ccc(F)c(Cl)c5)nn4)CC3)c(F)cc2c1=O | 8.33 µM (≈ 6.25 µg/mL) | 8.33 µM (≈ 6.25 µg/mL) | 16.6 µM (≈ 12.5 µg/mL) | 8.33 µM (≈ 6.25 µg/mL) | 16.6 µM (≈ 12.5 µg/mL) | 16.6 µM (≈ 12.5 µg/mL) | 33.3 µM (≈ 25 µg/mL) | – | 16.6 µM (≈ 12.5 µg/mL) | 16.6 µM (≈ 12.5 µg/mL) | 4.16 µM (≈ 3.12 µg/mL) | 5.36%
11 | O=C(OCc1cn(-c2ccc([N+](=O)[O-])cc2)nn1)c1cn(C2CC2)c2cc(N3CCN(Cc4cn(-c5ccc([N+](=O)[O-])cc5)nn4)CC3)c(F)cc2c1=O | 4.25 µM (≈ 3.13 µg/mL) | 1.06 µM (≈ 0.78 µg/mL) | 8.5 µM (≈ 6.25 µg/mL) | 4.25 µM (≈ 3.13 µg/mL) | 8.5 µM (≈ 6.25 µg/mL) | 17 µM (≈ 12.5 µg/mL) | 17 µM (≈ 12.5 µg/mL) | – | 17 µM (≈ 12.5 µg/mL) | 17 µM (≈ 12.5 µg/mL) | 4.25 µM (≈ 3.13 µg/mL) | 5.61%
12 | COc1ccccc1-n1cc(COC(=O)c2cn(C3CC3)c3cc(N4CCN(Cc5cn(-c6ccccc6OC)nn5)CC4)c(F)cc3c2=O)nn1 | 35.4 µM (≈ 25 µg/mL) | 35.4 µM (≈ 25 µg/mL) | 35.4 µM (≈ 25 µg/mL) | 8.86 µM (≈ 6.25 µg/mL) | 17.7 µM (≈ 12.5 µg/mL) | 35.4 µM (≈ 25 µg/mL) | 70.8 µM (≈ 50 µg/mL) | 35.4 µM (≈ 25 µg/mL) | 4.43 µM (≈ 3.13 µg/mL) | 4.43 µM (≈ 3.13 µg/mL) | 4.43 µM (≈ 3.13 µg/mL) | 7.65%
13 | CCCCCc1ccc(-n2cc(COC(=O)c3cn(C4CC4)c4cc(N5CCN(Cc6cn(-c7ccc(CCCCC)cc7)nn6)CC5)c(F)cc4c3=O)nn2)cc1 | 63.6 µM (≈ 50 µg/mL) | 127 µM (≈ 100 µg/mL) | > 127 µM | > 127 µM | > 127 µM | 31.8 µM (≈ 25 µg/mL) | > 127 µM | > 127 µM | > 127 µM | > 127 µM | 63.6 µM (≈ 50 µg/mL) | 5.32%
14 | O=C(OCc1cn(-c2ccccc2Cl)nn1)c1cn(C2CC2)c2cc(N3CCN(Cc4cn(-c5ccccc5Cl)nn4)CC3)c(F)cc2c1=O | 8.75 µM (≈ 6.25 µg/mL) | 1.09 µM (≈ 0.779 µg/mL) | 35 µM (≈ 25 µg/mL) | 2.19 µM (≈ 1.56 µg/mL) | 8.75 µM (≈ 6.25 µg/mL) | 35 µM (≈ 25 µg/mL) | 35 µM (≈ 25 µg/mL) | 140 µM (≈ 100 µg/mL) | 17.5 µM (≈ 12.5 µg/mL) | 35 µM (≈ 25 µg/mL) | 2.19 µM (≈ 1.56 µg/mL) | 5.85%
15 | O=C(OCc1cn(-c2ccc(F)cc2Cl)nn1)c1cn(C2CC2)c2cc(N3CCN(Cc4cn(-c5ccc(F)cc5Cl)nn4)CC3)c(F)cc2c1=O | 2.08 µM (≈ 1.56 µg/mL) | 4.16 µM (≈ 3.12 µg/mL) | 16.6 µM (≈ 12.5 µg/mL) | 16.6 µM (≈ 12.5 µg/mL) | 16.6 µM (≈ 12.5 µg/mL) | 16.6 µM (≈ 12.5 µg/mL) | 66.6 µM (≈ 50 µg/mL) | – | 33.3 µM (≈ 25 µg/mL) | 33.3 µM (≈ 25 µg/mL) | 33.3 µM (≈ 25 µg/mL) | 29.8%
16 | O=C(O)c1cn(C2CC2)c2cc(N3CCNCC3)c(F)cc2c1=O [CIPROFLOXACIN] | – | 9.43 µM (≈ 3.12 µg/mL) | – | – | – | – | – | – | – | – | 9.43 µM (≈ 3.12 µg/mL) | 5.23%
